By pEC50 is commonly meant the negative decadic logarithm of the EC50, by convention in mol/L.

Consider 15 compounds from patent US20240150377A1, “MODULATORS OF CYSTIC FIBROSIS TRANSMEMBRANE CONDUCTANCE REGULATOR” (VERTEX PHARMACEUTICALS INCORPORATED, priority 2020, published 2024).

Molecules are shown by their SMILES. pEC50: −log10 of the molar value. Like-named read-outs stand apart in the source and are kept apart here.

The test has as its target CFTR (Homo sapiens, UniProt P13569). Kind of test: Membrane potential dye, Enteroid Assay B. In kind it is cell-based. Particulars: for pEC50: read-out: Ent. B EC50; for Ent. B Max Activity: chloride transport as % of triple combination control (Enteroid Assay B). Here is the method: Base medium (ADF+++) consisted of Advanced DMEM/Ham's F12, 2 mM Glutamax, 10 mM HEPES, […] penicillin/streptomycin.
Intestinal enteroid maintenance medium (IEMM) consisted of ADF+++, 1× B27 supplement, 1× N2 supplement, 1.25 mM N-acetyl cysteine, 10 mM Nicotinamide, 50 ng/mL hEGF, 10 nM Gastrin, 1 μg/mL hR-spondin-1, 100 ng/mL hNoggin, TGF-b type 1 inhibitor A-83-01, 100 μg/mL Primocin, 10 μM P38 MAPK inhibitor SB202190.
Bath 1 Buffer consisted of 1 mM MgCl2, 160 mM NaCl, 4.5 mM KCl, 10 mM HEPES, 10 mM Glucose, 2 mM CaCl2).
Chloride Free Buffer consisted of 1 mM Magnesium Gluconate, 2 mM Calcium Gluconate, 4.5 mM Potassium Gluconate, 160 mM Sodium Gluconate, 10 mM HEPES, 10 mM Glucose.
BathI Dye Solution consisted of Bath 1 Buffer, 0.04% Pluronic F127, 20 μM Methyl Oxonol, 30 μM CaCCinh-A01, 30 μM Chicago Sky Blue.
Chloride Free Dye Solution consisted of Chloride Free Buffer, 0.04% Pluronic F127, 20 μM Methyl Oxonol, 30 μM CaCCinh-A01, 30 μM Chicago Sky Blue.
Chloride Free Dye Stimulation Solution consisted of Chloride Free Dye Solution, 10 μM forskolin, 100 μM IBMX, and 300 nM Compound III.
Human intestinal epithelial enteroid cells were obtained from the Hubrecht Institute for Developmental Biology and Stem Cell Research, Utrecht, The Netherlands and expanded in T-Flasks as previously described (Dekkers J F, Wiegerinck C L, de Jonge H R, Bronsveld I, Janssens H M, de Winter-de Groot K M, Brandsma A M, de Jong N W M, Bijvelds M J C, Scholte B J, Nieuwenhuis E E S, van den Brink S, Clevers H, van der Ent C K, Middendorp S and M Beekman J M. A functional CFTR assay using primary cystic fibrosis intestinal organoids. Nat Med. 2013 July;19(7):939-45.).
3. Enteroid Cell Harvesting and Seeding
Cells were recovered in cell recovery solution, collected by centrifugation at 650 rpm for 5 min at 4° C., resuspended in TrypLE and incubated for 5 min at 37° C. Cells were then collected by centrifugation at 650 rpm for 5 min at 4° C. and resuspended in IEMM containing 10 μM ROCK inhibitor (RI). The cell suspension was passed through a 40 μm cell strainer and resuspended at 1×10^6 cells/mL in IEMM containing 10 μM RI. Cells were seeded at 5000 cells/well into multi-well plates and incubated for overnight at 37° C., 95% humidity and 5% CO2 prior to assay.
5. Membrane Potential Dye, Enteroid Assay B
Enteroid cells were incubated with test compound in IEMM for 18-24 hours at 37° C., 95% humidity and 5% CO2. […] Briefly, cells were washed 5 times in Bath 1 Buffer. Bath 1 Dye Solution was added and the cells were incubated for 25 min at room temperature. Following dye incubation, cells were washed 3 times in Chloride Free Dye Solution. Chloride transport was initiated by addition of Chloride Free Dye Stimulation Solution and the fluorescence signal was read for 15 min. […] Chloride transport was then expressed as a percentage of the chloride transport following treatment with 1 μM (14S)-8-[3-(2-{Dispiro[2.0.2.1]heptan-7-yl}ethoxy)-1H-pyrazol-1-yl]-12,12-dimethyl-2λ^6-thia-3,9,11,18,23-pentaazatetracyclo[17.3.1.111,14.05,10]tetracosa-1(22),5,7,9,19(23),20-hexaene-2,2,4-trione, 3 μM (R)-1-(2,2-difluorobenzo[d][1,3]dioxol-5-yl)-N-(1-(2,3-dihydroxypropyl)-6-fluoro-2-(1-hydroxy-2-methylpropan-2-yl)-1H-indol-5-yl)cyclopropanecarboxamide and 300 nM acute N-[2,4-bis(1,1-dimethylethyl)-5-hydroxyphenyl]-1,4-dihydro-4-oxoquinoline-3-carboxamide triple combination control (% Activity).

Setting [1] is: Table 8, human enteroid cells, 18-24 hours, acute 10 μM forskolin and 300 nM ivacaftor.

CFTR, sequence (P13569 with tags, fused parts or gaps DEL508-508): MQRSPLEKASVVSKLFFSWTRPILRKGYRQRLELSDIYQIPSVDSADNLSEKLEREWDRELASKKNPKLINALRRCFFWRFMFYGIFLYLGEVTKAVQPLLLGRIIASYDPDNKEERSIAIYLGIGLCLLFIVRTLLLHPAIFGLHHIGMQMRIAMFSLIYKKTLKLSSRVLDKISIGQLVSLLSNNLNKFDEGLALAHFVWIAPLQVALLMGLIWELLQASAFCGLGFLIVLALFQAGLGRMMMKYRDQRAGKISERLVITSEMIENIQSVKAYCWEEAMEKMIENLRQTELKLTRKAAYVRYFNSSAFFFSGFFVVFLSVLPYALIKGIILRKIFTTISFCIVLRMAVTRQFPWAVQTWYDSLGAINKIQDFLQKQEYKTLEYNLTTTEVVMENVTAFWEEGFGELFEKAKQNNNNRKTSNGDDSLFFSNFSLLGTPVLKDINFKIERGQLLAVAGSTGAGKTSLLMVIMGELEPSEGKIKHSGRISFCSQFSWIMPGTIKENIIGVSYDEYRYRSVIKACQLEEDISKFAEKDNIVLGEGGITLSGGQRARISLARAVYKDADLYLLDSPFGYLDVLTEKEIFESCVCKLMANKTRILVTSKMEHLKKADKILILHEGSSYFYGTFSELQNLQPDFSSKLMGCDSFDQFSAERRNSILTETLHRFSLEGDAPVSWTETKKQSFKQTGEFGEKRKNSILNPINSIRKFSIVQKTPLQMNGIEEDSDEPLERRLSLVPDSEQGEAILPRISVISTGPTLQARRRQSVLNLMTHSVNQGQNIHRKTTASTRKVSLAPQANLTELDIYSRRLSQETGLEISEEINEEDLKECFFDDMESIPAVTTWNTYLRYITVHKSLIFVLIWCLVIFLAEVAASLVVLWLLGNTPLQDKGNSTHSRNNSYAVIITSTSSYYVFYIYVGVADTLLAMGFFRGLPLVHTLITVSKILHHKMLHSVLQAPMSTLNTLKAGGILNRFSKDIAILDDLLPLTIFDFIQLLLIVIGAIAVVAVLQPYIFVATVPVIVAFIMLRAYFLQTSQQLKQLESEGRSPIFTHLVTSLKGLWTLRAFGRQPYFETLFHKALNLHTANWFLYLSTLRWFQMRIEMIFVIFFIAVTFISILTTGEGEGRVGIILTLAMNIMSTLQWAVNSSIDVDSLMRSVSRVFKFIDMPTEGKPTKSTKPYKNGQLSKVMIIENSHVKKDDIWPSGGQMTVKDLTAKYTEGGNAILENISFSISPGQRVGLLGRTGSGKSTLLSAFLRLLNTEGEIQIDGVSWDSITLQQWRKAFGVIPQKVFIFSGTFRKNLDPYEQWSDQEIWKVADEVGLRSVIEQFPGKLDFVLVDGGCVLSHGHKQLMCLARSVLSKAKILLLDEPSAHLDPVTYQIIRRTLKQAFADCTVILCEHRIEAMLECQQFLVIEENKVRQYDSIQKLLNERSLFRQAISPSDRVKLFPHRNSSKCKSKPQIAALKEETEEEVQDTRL

Take `Cc1cccc(C)c1-c1cc2nc(n1)NS(=O)(=O)c1cccc(c1)C(=O)N(CC1CC(O)(Cc3ccccc3)C1)[C@H](CC(C)(C)C)CO2` (single isomer, unassigned) [Compound 67]: under “Table 9”, the “Ent. B Max Activity (%)” value was “+++ (+++ is >600%)” and the pEC50 is greater than 6.00.
Turning to `Cc1cccc(C)c1-c1cc2nc(n1)NS(=O)(=O)c1cccc(c1)C(=O)N(CC1CC(O)(Cc3ccccc3)C1)[C@H](CC(C)(C)C)CO2` (single isomer, unassigned) [Compound 68], where the note is “Table 9”, the “Ent. B Max Activity (%)” value is reported as “+++ (+++ is >600%)” and the pEC50 is greater than 6.00.
Turning to `Cc1cccc(C)c1-c1cc2nc(n1)NS(=O)(=O)c1cccc(c1)C(=O)N(C)CC(c1ccc(CC3(C(F)(F)F)CC3)cn1)O2` (single isomer, unassigned) [Compound 104, 6-(2,6-dimethylphenyl)-12-methyl-10-(5-{[1-(trifluoromethyl)cyclopropyl]methyl}pyridin-2-yl)-9-oxa-2λ^6-thia-3,5,12,19-tetraazatricyclo[12.3.1.14,8]nonadeca-1(17),4(19),5,7,14(18),15-hexaene-2,2,13-trione], under “Table 8”, the “Ent. B Max Activity” value is listed as “+++ (+++ is >60%)”. In addition, the pEC50 under setting [1] is greater than 6.00.
The corresponding values for `Cc1cccc(C)c1-c1cc2nc(n1)NS(=O)(=O)c1cccc(c1)C(=O)N(C)CC(c1ccc(CC3(C(F)(F)F)CC3)cn1)O2` (single isomer, unassigned) [Compound 105, 6-(2,6-dimethylphenyl)-12-methyl-10-(5-{[1-(trifluoromethyl)cyclopropyl]methyl}pyridin-2-yl)-9-oxa-2λ^6-thia-3,5,12,19-tetraazatricyclo[12.3.1.14,8]nonadeca-1(17),4(19),5,7,14(18),15-hexaene-2,2,13-trione] are “+ (+ is <30%)” and greater than 6.00.
In the case of `Cc1cccc(C)c1-c1cc2nc(n1)NS(=O)(=O)c1cccc(c1)C(=O)N(CC1CCC(C)(O)CC1)[C@H](CC(C)(C)C)CO2` (single isomer, unassigned) [Compound 149], the “Ent. B Max Activity” value (Table 8) is recorded as “+++ (+++ is >60%)”. For the same compound, under setting [1], the pEC50 was greater than 6.00.
For `Cc1cccc(C)c1-c1cc2nc(n1)NS(=O)(=O)c1cccc(c1)C(=O)N(CC1CCC(C)(O)CC1)[C@H](CC(C)(C)C)CO2` (single isomer, unassigned) [Compound 150], in that order: “+++ (+++ is >60%)” and greater than 6.00.
For `Cc1cccc(C)c1-c1cc2nc(n1)NS(=O)(=O)c1cccc(c1)C(=O)N(CCCOC(F)(F)F)[C@H](CC(C)C)CO2` [Compound 42, (11R)-6-(2,6-Dimethylphenyl)-11-isobutyl-2,2-dioxo-12-[3-(trifluoromethoxy)propyl]-9-oxa-2λ^6-thia-3,5,12,19-tetrazatricyclo[12.3.1.14,8]nonadeca-1(18),4(19),5,7,14,16-hexaen-13-one], in that order: “+++ (+++ is >60%)” and greater than 6.00.
`Cc1cccc(C)c1-c1cc2nc(n1)NS(=O)(=O)c1cccc(c1)C(=O)N(CC(C)(C)O)[C@H](CC(C)C)CO2` [Compound 43, (11R)-6-(2,6-Dimethylphenyl)-12-(2-hydroxy-2-methyl-propyl)-11-isobutyl-2,2-dioxo-9-oxa-2λ^6-thia-3,5,12,19-tetrazatricyclo[12.3.1.14,8]nonadeca 1(18),4(19),5,7,14,16-hexaen-13-one]: the “Ent. B Max Activity” value (Table 8) is listed as “+++ (+++ is >60%)”. Moreover, under setting [1], the pEC50 is greater than 6.00.
Turning to `Cc1cccc(C)c1-c1cc2nc(n1)NS(=O)(=O)c1cccc(c1)CN(CCCCO)[C@H](CC(C)C)CO2` [Compound 46, 4-[(11R)-6-(2,6-Dimethylphenyl)-11-isobutyl-2,2-dioxo-9-oxa-2λ^6-thia-3,5,12,19-tetrazatricyclo[12.3.1.14,8]nonadeca-1(18),4(19),5,7,14,16-hexaen-12-yl]butan-1-ol], for the setting “Table 8”, the “Ent. B Max Activity” value was “+++ (+++ is >60%)”. The negative logarithm of the EC50 (pEC50) under setting [1] was greater than 6.00.
`Cc1cccc(C)c1-c1cc2nc(n1)NS(=O)(=O)c1cccc(c1)C(=O)N(Cc1ccnc(N)c1)[C@H](CC(C)(C)C)CO2` [Compound 61, (11R)-12-[(2-Amino-4-pyridyl)methyl]-6-(2,6-dimethylphenyl)-11-(2,2-dimethylpropyl)-2,2-dioxo-9-oxa-2λ^6-thia-3,5,12,19-tetrazatricyclo[12.3.1.14,8]nonadeca-1(18),4(19),5,7,14,16-hexaen-13-one]: where the note is “Table 9”, the “Ent. B Max Activity (%)” value was “+++ (+++ is >600%)” and the pEC50 is greater than 6.00.
For `Cc1cccc(C)c1-c1cc2nc(n1)NS(=O)(=O)c1cccc(c1)C(=O)N(CC13CC(C(C)(C)O)(C1)C3)[C@H](CC(C)(C)C)CO2` [Compound 69, (11R)-6-(2,6-Dimethylphenyl)-11-(2,2-dimethylpropyl)-12-[[3-(1-hydroxy-1-methyl-ethyl)-1-bicyclo[1.1.1]pentanyl]methyl]-2,2-dioxo-9-oxa-2λ^6-thia-3,5,12,19-tetrazatricyclo[12.3.1.14,8]nonadeca-1(18),4(19),5,7,14,16-hexaen-13-one], in that order: “+++ (+++ is >600%)” and greater than 6.00.
Take `Cc1cccc(C)c1-c1cc2nc(n1)NS(=O)(=O)c1cc(nn1C)C(=O)N(Cc1ncccn1)[C@H](CC(C)(C)C)CO2` [Compound 70, (10R)-15-(2,6-Dimethylphenyl)-10-(2,2-dimethylpropyl)-5-methyl-3,3-dioxo-9-(pyrimidin-2-ylmethyl)-12-oxa-3λ^6-thia-2,5,6,9,16,17-hexazatricyclo[11.3.1.14,7]octadeca-1(17),4(18),6,13,15-pentaen-8-one]: for the setting “Table 8”, the “Ent. B Max Activity” value is given as “++ (++ is 30-60%)”. In addition, under setting [1], the pEC50 is greater than 6.00.
Regarding `Cc1cccc(C)c1-c1cc2nc(n1)NS(=O)(=O)c1cccc(n1)C(=O)N(CCCCC(C)(C)O)[C@H](CC(C)(C)C)CO2` [Compound 76, (11R)-6-(2,6-Dimethylphenyl)-11-(2,2-dimethylpropyl)-12-(5-hydroxy-5-methylhexyl)-9-oxa-2λ^6-thia-3,5,12,18,19-pentaazatricyclo[12.3.1.14,8]nonadeca-1(18),4(19),5,7,14,16-hexaene-2,2,13-trione], the “Ent. B Max Activity” value (Table 8) was “+++ (+++ is >60%)”. Besides, the pEC50 under setting [1] was greater than 6.00.
For the compound `Cc1cccc(C)c1-c1cc2nc(n1)NS(=O)(=O)c1cccc(c1)C(=O)N(CCN(C)C(=O)OC(C)C)[C@H](CC(C)C)CO2` [Compound 91, Isopropyl N-[2-[(11R)-6-(2,6-dimethylphenyl)-11-isobutyl-2,2,13-trioxo-9-oxa-2λ^6-thia-3,5,12,19-tetrazatricyclo[12.3.1.14,8]nonadeca-1(18),4(19),5,7,14,16-hexaen-12-yl]ethyl]-N-methyl-carbamate], the “Ent. B Max Activity” value (Table 7) is on record as “+++ (+++ is >60%)”. For the same compound, the negative-log EC50 (pEC50) (Table 7, human enteroid cells, 18-24 hours, acute 10 μM forskolin and 300 nM ivacaftor) was greater than 6.00.
Consider `Cc1cccc(C)c1-c1cc2nc(n1)NS(=O)(=O)c1cccc(c1)C(=O)N(CCCC(=O)N(C)C)[C@H](CC(C)C)CO2` [Compound 92, 4-[(11R)-6-(2,6-Dimethylphenyl)-11-isobutyl-2,2,13-trioxo-9-oxa-2λ^6-thia-3,5,12,19-tetrazatricyclo[12.3.1.14,8]nonadeca-1(18),4(19),5,7,14,16-hexaen-12-yl]-N,N-dimethyl-butanamide], for which, where the note is “Table 8”, the “Ent. B Max Activity” value is listed as “+++ (+++ is >60%)”. In addition, under setting [1], the pEC50 was greater than 6.00.
